Experimental findings from US20050282863A1, “Novel-N substituted dihydrobenzothiepino, dihydrobenzoxepino and tetrahydro benzocyclohepta indoles as selective estrogen receptor modulators” (Council of Scientific & Industrial Research, priority 2004, published 2005) are described below.

In assay [1] the test system is MCF-7 cells. The assay is described as follows: Antiproliferative/cytotoxic activity in cultured MCF-7 cells (SRB assay). Conditions: Homo sapiens, MCF7, 48 h, MCF-7, 48 h. The format is cell-based. A general note: Sulforhodamine B stains cellular protein and so reports cell mass.
The test system of assay [2] is immature ovariectomized rats. The assay is described as follows: Estrogen agonistic activity: increase in uterine weight in immature ovariectomized rats. Conditions: 3 days, percent of ovariectomized + vehicle group; for change in vivo at 3 mg/kg: daily dose 3 mg/kg. The format is in vivo, rat.

Structures are written as SMILES. Read-outs that look alike come from different tables or passages of the source.

With `CCCCN(C)CCCCCn1c2c(c3ccccc31)CCSc1ccccc1-2` [Example number 13, 12-[5-(N-butylmethylamino)pentyl]-6,7-dihydro-12H-benzothiepino [5,4-b]indole], the CC50 in assay [1] (read-out: LC50, Test-1) stood at 24 µM. For the same molecule, the change in vivo at 1 mg/kg in assay [2] (Rattus norvegicus, 72 h, daily dose 1 mg/kg) was found to be 8%. The change in vivo at 3 mg/kg in assay [2] (Rattus norvegicus, 72 h) was 2.53%. Moreover, in assay [2] (daily dose 10 mg/kg), the “Percent increase in uterine weight” value is recorded as 126.00%.
Turning to `c1ccc2c(c1)SCCc1c-2n(CCCCCCN2CCCCC2)c2ccccc12` [Example number 18, 12-[6-(Piperidine-1-yl)hexyl]-6,7-dihydro-12H-benzothiepino [5,4-b]indole], the CC50 in assay [1] (read-out: LC50, Test-1) is 18.2 µM; in assay [1] (read-out: LC50, Test-3), 9.63 µM. Besides, the change in vivo at 3 mg/kg in assay [2] (Rattus norvegicus, 72 h) came to 1.76%. The change in vivo at 10 mg/kg in assay [2] (Rattus norvegicus, 72 h, daily dose 10 mg/kg) came out at 51%.
